Measured values as given in the supplement of paper PMC12463676, “Small-molecule dissolution of stress granules by redox modulation benefits ALS models” (Nature Chemical Biology, 2025).

Columns and labels:
potassium arsenate = compound: O=[As]([O-])(O)O.[K+] [potassium arsenate]; assay: thermal stability z-score vs DMSO; higher = more thermally stabilized by treatment; settings: HeLa; arsenate concentration 1 mM
Procedure: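 Cellular thermal proteome profiling in HeLa cells treated with 1 mM arsenate for 1 h (DMSO pretreatment), heated to ten temperatures (37-66.3 °C). Soluble protein was quantified by TMT mass spectrometry relative to DMSO controls; the thermal stability score was transformed to a z-score; mean of n = 3 experiments.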

lipoamide = compound: NC(=O)CCCCC1CCSS1 [lipoamide]; assay: as above; settings: HeLa, lipoamide concentration 100 µM
Procedure: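 Cellular thermal proteome profiling in HeLa cells. Cells were treated with 100 µM lipoamide for 1 h, with or without 1 mM arsenate for a further 1 h, then heated to ten temperatures (37-66.3 °C), and soluble protein was quantified by TMT mass spectrometry relative to 0.1% DMSO controls. The thermal stability score (sum of log2 fold changes minus the abundance score) was transformed to a z-score; mean of n = 3 experiments.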

[1] = arsenate co-treatment: 1 mM arsenate 1 h
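Note: each temperature applied for 3 min, abundance score taken as mean log2 fold change at the two lowest temperatures, z-score obtained by mean subtraction and division by SD.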

UniProt Q8N8Q9, sequence (Q8N8Q9 whole entry): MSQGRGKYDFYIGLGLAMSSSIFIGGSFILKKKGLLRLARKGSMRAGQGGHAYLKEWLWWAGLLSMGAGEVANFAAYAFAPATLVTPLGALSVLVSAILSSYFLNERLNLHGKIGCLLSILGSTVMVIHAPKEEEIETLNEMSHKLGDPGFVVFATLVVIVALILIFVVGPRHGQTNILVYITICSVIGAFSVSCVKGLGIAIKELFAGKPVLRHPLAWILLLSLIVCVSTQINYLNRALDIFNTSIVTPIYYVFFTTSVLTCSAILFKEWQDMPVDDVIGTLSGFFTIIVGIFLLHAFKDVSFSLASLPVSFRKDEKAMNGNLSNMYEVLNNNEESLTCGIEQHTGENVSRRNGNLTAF
UniProt Q15054, sequence (Q15054 whole entry): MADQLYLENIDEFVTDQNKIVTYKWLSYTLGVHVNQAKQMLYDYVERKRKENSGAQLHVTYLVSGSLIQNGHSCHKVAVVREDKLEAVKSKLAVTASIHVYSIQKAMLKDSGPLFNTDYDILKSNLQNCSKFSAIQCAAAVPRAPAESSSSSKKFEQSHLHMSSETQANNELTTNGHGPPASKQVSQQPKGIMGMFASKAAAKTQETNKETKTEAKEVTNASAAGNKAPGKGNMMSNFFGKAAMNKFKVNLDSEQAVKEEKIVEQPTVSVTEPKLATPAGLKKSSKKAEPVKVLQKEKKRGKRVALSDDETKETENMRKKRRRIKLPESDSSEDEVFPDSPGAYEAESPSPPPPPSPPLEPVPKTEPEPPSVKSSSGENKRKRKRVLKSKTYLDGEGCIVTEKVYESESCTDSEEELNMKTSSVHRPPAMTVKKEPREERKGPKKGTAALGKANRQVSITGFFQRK
UniProt Q13868, sequence (Q13868 whole entry): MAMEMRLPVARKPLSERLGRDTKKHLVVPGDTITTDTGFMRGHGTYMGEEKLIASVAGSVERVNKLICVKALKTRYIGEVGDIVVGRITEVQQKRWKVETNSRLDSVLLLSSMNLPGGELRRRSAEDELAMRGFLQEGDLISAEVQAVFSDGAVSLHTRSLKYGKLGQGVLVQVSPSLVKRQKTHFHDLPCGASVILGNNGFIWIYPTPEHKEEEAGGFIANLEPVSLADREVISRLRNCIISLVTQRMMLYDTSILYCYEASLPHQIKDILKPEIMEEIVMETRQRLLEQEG
UniProt Q5QJE6, sequence (Q5QJE6 whole entry): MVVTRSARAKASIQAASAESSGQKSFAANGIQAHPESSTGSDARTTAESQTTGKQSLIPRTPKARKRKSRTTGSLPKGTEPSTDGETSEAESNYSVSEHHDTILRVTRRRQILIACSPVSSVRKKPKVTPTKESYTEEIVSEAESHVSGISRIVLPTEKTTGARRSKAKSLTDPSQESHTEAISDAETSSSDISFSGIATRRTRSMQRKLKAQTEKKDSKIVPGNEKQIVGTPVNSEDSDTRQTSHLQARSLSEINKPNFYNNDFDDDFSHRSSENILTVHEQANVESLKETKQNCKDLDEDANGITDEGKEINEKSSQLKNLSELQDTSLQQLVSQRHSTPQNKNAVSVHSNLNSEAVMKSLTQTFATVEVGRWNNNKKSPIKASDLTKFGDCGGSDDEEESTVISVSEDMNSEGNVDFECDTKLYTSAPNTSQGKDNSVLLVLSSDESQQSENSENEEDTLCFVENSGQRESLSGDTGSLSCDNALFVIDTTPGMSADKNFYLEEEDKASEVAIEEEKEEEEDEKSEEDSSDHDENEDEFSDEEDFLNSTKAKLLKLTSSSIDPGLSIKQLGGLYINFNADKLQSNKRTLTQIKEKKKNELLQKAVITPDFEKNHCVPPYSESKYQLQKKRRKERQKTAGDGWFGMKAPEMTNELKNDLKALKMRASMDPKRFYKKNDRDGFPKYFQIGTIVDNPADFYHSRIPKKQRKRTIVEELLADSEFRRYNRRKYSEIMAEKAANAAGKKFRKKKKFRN
UniProt Q96T88, sequence (Q96T88 whole entry): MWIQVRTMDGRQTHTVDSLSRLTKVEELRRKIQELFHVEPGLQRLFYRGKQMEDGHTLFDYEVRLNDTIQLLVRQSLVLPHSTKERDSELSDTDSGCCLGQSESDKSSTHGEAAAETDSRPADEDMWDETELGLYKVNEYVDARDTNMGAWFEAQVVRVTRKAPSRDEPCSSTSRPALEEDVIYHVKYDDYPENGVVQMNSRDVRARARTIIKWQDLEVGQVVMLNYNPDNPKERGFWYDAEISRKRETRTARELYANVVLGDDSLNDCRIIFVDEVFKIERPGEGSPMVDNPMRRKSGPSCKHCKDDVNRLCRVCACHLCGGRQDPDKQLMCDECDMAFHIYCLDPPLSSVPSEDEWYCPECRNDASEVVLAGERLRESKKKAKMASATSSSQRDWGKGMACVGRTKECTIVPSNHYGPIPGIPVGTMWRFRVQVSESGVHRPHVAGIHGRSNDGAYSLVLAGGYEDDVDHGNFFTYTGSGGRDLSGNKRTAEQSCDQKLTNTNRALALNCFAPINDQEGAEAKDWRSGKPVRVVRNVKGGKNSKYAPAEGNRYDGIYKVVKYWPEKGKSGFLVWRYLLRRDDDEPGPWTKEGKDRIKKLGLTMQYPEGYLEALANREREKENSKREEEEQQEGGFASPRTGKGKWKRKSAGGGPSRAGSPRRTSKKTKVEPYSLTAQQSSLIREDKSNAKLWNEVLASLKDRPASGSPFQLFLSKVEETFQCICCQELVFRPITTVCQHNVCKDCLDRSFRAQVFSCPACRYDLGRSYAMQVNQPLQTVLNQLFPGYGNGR
UniProt Q7L592, sequence (Q7L592 whole entry): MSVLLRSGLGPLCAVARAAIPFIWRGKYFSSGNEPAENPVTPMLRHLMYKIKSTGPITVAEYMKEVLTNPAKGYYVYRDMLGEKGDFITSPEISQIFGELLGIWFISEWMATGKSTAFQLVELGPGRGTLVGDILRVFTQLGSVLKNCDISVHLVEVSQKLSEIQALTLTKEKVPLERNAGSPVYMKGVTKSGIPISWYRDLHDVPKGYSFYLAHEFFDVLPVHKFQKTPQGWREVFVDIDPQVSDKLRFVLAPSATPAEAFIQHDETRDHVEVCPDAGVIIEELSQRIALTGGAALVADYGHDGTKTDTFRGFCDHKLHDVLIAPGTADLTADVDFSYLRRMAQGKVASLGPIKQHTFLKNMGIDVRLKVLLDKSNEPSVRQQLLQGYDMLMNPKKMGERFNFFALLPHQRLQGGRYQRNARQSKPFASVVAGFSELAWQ
UniProt Q9H8M2, sequence (Q9H8M2 whole entry): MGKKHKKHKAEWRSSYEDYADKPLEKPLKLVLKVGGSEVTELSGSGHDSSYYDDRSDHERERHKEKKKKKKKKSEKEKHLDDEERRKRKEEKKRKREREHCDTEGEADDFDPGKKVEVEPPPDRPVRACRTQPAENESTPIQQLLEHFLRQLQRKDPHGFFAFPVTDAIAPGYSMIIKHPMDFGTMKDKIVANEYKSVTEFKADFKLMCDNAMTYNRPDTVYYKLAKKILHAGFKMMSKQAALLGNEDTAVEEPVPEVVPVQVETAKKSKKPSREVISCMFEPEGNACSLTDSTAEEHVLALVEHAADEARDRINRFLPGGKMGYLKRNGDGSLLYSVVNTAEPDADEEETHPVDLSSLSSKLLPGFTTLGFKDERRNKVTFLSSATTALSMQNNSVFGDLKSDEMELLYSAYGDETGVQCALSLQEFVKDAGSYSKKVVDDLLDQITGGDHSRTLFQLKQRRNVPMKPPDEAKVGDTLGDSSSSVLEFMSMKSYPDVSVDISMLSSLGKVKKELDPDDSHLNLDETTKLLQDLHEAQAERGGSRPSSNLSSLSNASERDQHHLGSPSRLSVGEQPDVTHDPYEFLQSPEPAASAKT
UniProt Q9UHP3, sequence (Q9UHP3 whole entry): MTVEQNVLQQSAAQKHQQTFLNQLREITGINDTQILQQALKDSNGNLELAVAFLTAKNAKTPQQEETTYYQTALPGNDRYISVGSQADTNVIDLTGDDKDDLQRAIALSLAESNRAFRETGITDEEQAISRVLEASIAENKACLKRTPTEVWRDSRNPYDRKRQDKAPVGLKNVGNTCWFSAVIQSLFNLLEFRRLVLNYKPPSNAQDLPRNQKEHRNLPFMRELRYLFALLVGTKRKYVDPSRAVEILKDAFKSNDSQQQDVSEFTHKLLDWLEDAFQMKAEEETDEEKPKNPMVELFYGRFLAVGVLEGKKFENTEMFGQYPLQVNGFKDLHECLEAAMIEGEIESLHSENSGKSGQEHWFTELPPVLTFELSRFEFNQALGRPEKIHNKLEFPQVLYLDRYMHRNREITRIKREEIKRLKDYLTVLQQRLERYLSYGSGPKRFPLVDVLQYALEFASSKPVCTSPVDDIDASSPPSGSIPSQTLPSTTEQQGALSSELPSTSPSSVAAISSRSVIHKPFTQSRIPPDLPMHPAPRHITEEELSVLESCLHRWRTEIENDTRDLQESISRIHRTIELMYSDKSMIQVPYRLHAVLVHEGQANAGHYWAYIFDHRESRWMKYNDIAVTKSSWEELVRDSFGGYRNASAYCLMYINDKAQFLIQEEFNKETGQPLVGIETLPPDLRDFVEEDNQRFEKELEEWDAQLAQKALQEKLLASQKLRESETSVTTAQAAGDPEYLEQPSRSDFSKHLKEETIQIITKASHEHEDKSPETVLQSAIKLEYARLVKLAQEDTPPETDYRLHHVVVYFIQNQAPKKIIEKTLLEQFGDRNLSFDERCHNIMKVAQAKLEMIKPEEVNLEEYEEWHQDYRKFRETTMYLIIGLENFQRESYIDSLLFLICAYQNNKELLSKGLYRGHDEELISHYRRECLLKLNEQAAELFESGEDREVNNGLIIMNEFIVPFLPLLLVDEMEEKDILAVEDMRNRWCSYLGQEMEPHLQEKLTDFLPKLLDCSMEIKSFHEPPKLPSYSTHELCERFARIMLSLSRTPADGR
UniProt Q9HBM1, sequence (Q9HBM1 whole entry): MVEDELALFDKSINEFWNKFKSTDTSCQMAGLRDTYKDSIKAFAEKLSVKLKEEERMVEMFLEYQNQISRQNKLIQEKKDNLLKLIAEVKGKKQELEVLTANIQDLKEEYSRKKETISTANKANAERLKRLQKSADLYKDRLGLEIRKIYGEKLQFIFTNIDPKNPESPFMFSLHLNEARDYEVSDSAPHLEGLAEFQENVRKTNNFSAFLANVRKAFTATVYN

Row | Target | thermal stability z-score (potassium arsenate) | thermal stability z-score (lipoamide; [1]) | thermal stability z-score (lipoamide; arsenate co-treatment: none)
1 | NIPA2 (UniProt Q8N8Q9) | 0.36 | 0.499 | 0.101
2 | B3GAT3 (UniProt O94766) | 0.0971 | -0.54 | -0.00376
3 | AK4 (UniProt P27144) | -0.724 | 0.119 | 0.256
4 | FXR1 (UniProt P51114) | 0.794 | 0.487 | 0.714
5 | EXOSC2 (UniProt Q13868) | -0.593 | 0.567 | 0.234
6 | HABP4 (UniProt Q5JVS0) | -0.0745 | 0.171 | -0.0888
7 | RNF169 (UniProt Q8NCN4) | -0.0867 | -0.0589 | 0.0354
8 | TNFAIP8 (UniProt O95379) | 0.147 | 0.127 | -0.421
9 | JTB (UniProt O76095) | 0.688 | 0.634 | 0.0713
10 | TAF7 (UniProt Q15545) | 0.641 | -0.3 | -0.347
11 | ALDOA (UniProt P04075) | -0.488 | 0.281 | 0.0525
12 | PITPNA (UniProt Q00169) | -0.787 | 0.386 | 0.434
13 | NDUFAF7 (UniProt Q7L592) | 0.288 | -0.486 | -0.171
14 | CCDC85B (UniProt Q15834) | 0.125 | 0.574 | 0.223
15 | GNB4 (UniProt Q9HAV0) | -0.65 | 0.329 | 0.753
16 | COG5 (UniProt Q9UP83) | 0.793 | -0.297 | -0.0509
17 | DNTTIP2 (UniProt Q5QJE6) | 0.279 | 0.201 | 0.12
18 | PLXNA1 (UniProt Q9UIW2) | -0.00413 | 0.316 | -0.385
19 | GNPDA1 (UniProt P46926) | 0.272 | 0.699 | 0.687
20 | RALBP1 (UniProt Q15311) | 0.00922 | 0.0469 | 0.055
21 | NEU1 (UniProt Q99519) | 0.921 | -0.363 | -0.25
22 | PRIM2 (UniProt P49643) | -0.113 | 0.176 | -0.165
23 | ACADVL (UniProt P49748) | -0.558 | -0.94 | -1.06
24 | FAM129B (UniProt Q96TA1) | -1.01 | 0.659 | 0.517
25 | FAM177A1 (UniProt Q8N128) | 1.04 | -0.313 | -0.584
26 | UHRF1 (UniProt Q96T88) | -0.766 | 0.0776 | 0.0619
27 | UniProt G3V599 | 0.593 | -0.297 | -0.663
28 | WDR74 (UniProt Q6RFH5) | -0.205 | -1.21 | -0.713

Row | Target | thermal stability z-score (potassium arsenate) | thermal stability z-score (lipoamide; [1]) | thermal stability z-score (lipoamide; arsenate co-treatment: none)
29 | PTPN23 (UniProt Q9H3S7) | 0.691 | -0.214 | -0.0347
30 | HELB (UniProt Q8NG08) | -0.671 | -0.468 | -0.74
31 | COPB2 (UniProt P35606) | 0.238 | 0.165 | -0.0303
32 | TRNT1 (UniProt Q96Q11) | -0.174 | 0.00685 | -0.189
33 | POLD3 (UniProt Q15054) | -0.487 | -0.0475 | 0.44
34 | CASP6 (UniProt P55212) | 0.158 | 1.05 | 1.33
35 | SPC25 (UniProt Q9HBM1) | 0.191 | 0.989 | -0.483
36 | LMBRD2 (UniProt Q68DH5) | -0.111 | -0.904 | -0.0118
37 | FAM50A (UniProt Q14320) | 0.455 | -0.0555 | 0.352
38 | PPP1R13L (UniProt Q8WUF5) | -0.21 | -0.367 | -0.132
39 | SEC61A1 (UniProt P61619) | 0.55 | 1.11 | 0.235
40 | DOCK11 (UniProt Q5JSL3) | -0.755 | -0.016 | 0.0791
41 | BRD9 (UniProt Q9H8M2) | 0.496 | 0.218 | 0.153
42 | CHURC1 (UniProt Q8WUH1) | -0.122 | -0.539 | -0.988
43 | RPL18 (UniProt Q07020) | -0.424 | 0.497 | -0.313
44 | LAS1L (UniProt Q9Y4W2) | -0.116 | -0.0675 | -0.132
45 | NDUFAF5 (UniProt Q5TEU4) | 0.155 | -0.066 | -0.112
46 | TMEM65 (UniProt Q6PI78) | 0.128 | -0.379 | -0.204
47 | HNRNPL (UniProt P14866) | -2.57 | 0.204 | 0.05
48 | DOCK9 (UniProt Q9BZ29) | -0.457 | -0.191 | -0.0295
49 | PPA2 (UniProt Q9H2U2) | -0.244 | -1.03 | -0.335
50 | USP25 (UniProt Q9UHP3) | 0.667 | -0.18 | -0.113
51 | MRPL13 (UniProt Q9BYD1) | -0.201 | -0.175 | -0.451
52 | TOR1B (UniProt O14657) | 1.11 | -2.23 | -2.79
53 | DCUN1D5 (UniProt Q9BTE7) | -0.507 | -0.0389 | 0.215
54 | PRMT9 (UniProt Q6P2P2) | 0.171 | 0.25 | 0.0769
55 | TSSC4 (UniProt Q9Y5U2) | -0.46 | 1.17 | 0.668
